This is an account of results in patent US8323925B2, “Aβ-binding protein and its peptide derivatives and uses thereof” (priority 2005, dated 2012).

No end group written: not given here. His‑tag = His-Tag conjugated at the N-terminus

The format of data set [1] is in vitro ADME. The text has this:
(§1) These fusion proteins can be used not only to specifically deliver ABPs to the brain but also inside brain cells. This is particularly important since intracellular Aβ is believed to play a major role in synaptic dysfunction and neurodegeneration well before the accumulation of insoluble Aβ in senile plaques^6,7. Such pseudo vaccines would be administered, for example, subcutaneously, and further ingredients beyond a pharmacologically acceptable carrier would not be necessary. […] Recombinant Aβ binding peptide P4-5 (rABP, His-tag-[…]) was conjugated to BBB-permeable single-domain antibody FC5 (FIG. 8A). The FC5 conjugated peptide (FC5/ABP) bound AB1-42 equally well as the synthetic (sABP) or non-conjugated peptide (rABP) (FIG. 8B).

The nature of data set [2]: Stability in serum containing medium. To be noted: for stability in serum containing medium: up to 48 hrs. Type of data set: in vitro ADME. The procedure:
(§2) All peptides P4, P5 and P4-5 are stable in serum containing medium for up to 48 hrs and also in rat blood plasma (FIG. 7). P4 peptide was incubated in culture medium containing 10% fetal calf serum for various time periods at 37° C. and the stability of p4 was tested by Western blot analysis using p4-specific antibody. No loss of P4 was detected over a 24 hour period.

A short description of data set [3]: Stability in rat blood plasma. In kind it is in vitro ADME. The procedure: as §2
A further data set relates to CD-1 mice. The data set is described as follows: Toxicity in vivo. Details: species or system mouse. To be noted: up to 20 mg/kg body weight.
The test system of a further data set is neuroblastoma cells. The data set is described as follows: Toxicity in vitro against cultured neuroblastoma cells. In kind it is cell-based. The note with it: data not shown. The procedure: Human neuroblastoma cells, SH-SY5Y were treated with 15 μM Aβ in the presense or absence of Aβ binding peptide p4-5 in serum-free medium for 48 hrs and cell death was assessed by Hoechst stain.

For another data set, the system named is primary cortical neurons. The data set is described as follows: Toxicity in vitro against primary cortical neurons. The note with it: data not shown. Type of data set: cell-based.
The target in data set [4] is T1, AB1-42 (Homo sapiens, UniProt P05067). Nature of the data set: Aβ binding of FC5-conjugated peptide.
Text: as §1

The next data set addresses Aβ1-40 (Homo sapiens, UniProt P05067). The data set is described as follows: Aβ-binding of recombinant proteins by dot-blot assay. The note with it: PK-4-specific antibody (FIG. 1B). The procedure:
(§3) Aβ-binding of recombinant proteins PK-4 and PK-3 with N-terminus His-tag was determined by dot-blot assay using His-Tag antibody (A) or PK-4-specific antibody (B), and by Biacore analysis (C). β-binding PK-4 is a […] amino acid-long polypeptide that corresponds to sequence 1171-1314, and 1369-1380, of the human pericentriolar material protein-1, PCM-1.

The target in another data set is Aβ1-42 (Homo sapiens, UniProt P05067). The data set is described as above. The procedure: as §3
Another data set relates to Aβ40-1. The data set is described as follows: Aβ-binding dot-blot assay, reverse peptide. The note with it: dot-blot (FIG. 1B). The procedure:
as §3

The subject of the next data set is Aβ42-1. The data set is described as follows: Aβ-binding dot-blot assay, reverse peptide. The note with it: dot-blot (FIG. 1B). The procedure:
as §3

Data set [5] deals with T1, AB1-42. Nature of the data set: Biacore analysis. In kind it is binding. The note with it: Biacore (FIG. 1C). The procedure: as §3
In general terms: Surface plasmon resonance follows binding to a sensor surface in real time, without labels.

A further data set concerns rat brain PKC. The data set is described as follows: PKC inhibitory activity in vitro. In kind it is biochemical. To be noted: rat brain PKC (FIG. 5). The procedure:
Various synthetic peptides derived from PK-4 (see FIG. 2) were tested for PKC inhibitory activity in vitro using rat brain PKC.

T1 sequence (P05067 672-713 limits assumed): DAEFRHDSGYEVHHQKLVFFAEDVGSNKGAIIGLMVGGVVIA
Chain of Aβ1-42 (P05067 672-713 limits assumed): as above
Chain of Aβ1-40 (P05067 672-711 limits assumed): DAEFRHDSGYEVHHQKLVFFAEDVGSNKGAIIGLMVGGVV

Consider “His-tag-MPDPVDPTTVTKTFKTRKASAQASLASKDKTPKSKSKKRNSTQLKSRVKNI ({His‑tag}-MPDPVDPTTVTKTFKTRKASAQASLASKDKTPKSKSKKRNSTQLKSRVKNI) [rABP]”, for which the “crossing of BBB in vitro” value in data set [1] is “did not cross the BBB”.
Consider “KDKTPKSKSKKRNSTQLKSRVKNITHARRILQQSNRNACN [Peptide P5]”, for which the “stability in serum containing medium” value in data set [2] is recorded as “stable”. Further, in [3], the “stability in rat blood plasma” value was “stable”. Moreover, the “apparent toxicity in vivo” value in the data set on CD-1 mice is “none of the peptides, p4, p5, or p4-5 showed any apparent toxicity”.
Consider “KTFKTRKASAQASLASKDKTPKSKSKKRNSTQLKSRVKNI [Peptide P4-5]”, for which the “stability in serum containing medium” value in data set [2] is “stable”. For the same molecule, in [3], the “stability in rat blood plasma” value was “stable”. Further, the “toxicity in vitro against cultured neuroblastoma cells” value with neuroblastoma cells is reported as “no toxicity”. Besides, the “toxicity in vitro against primary cortical neurons” value with primary cortical neurons is “no toxicity”. Moreover, the “apparent toxicity in vivo” value in the data set with CD-1 mice was “none of the peptides, p4, p5, or p4-5 showed any apparent toxicity”.
In the case of “FC5/ABP: Recombinant Aβ binding peptide P4-5 conjugated to BBB-permeable single-domain antibody FC5 ({His‑tag}-MPDPVDPTTVTKTFKTRKASAQASLASKDKTPKSKSKKRNSTQLKSRVKNI; also: conjugated to single-domain antibody FC5)”, in the data set with AB1-42 [4], the “binding of AB1-42 relative to synthetic or non-conjugated peptide” value is “equally well”. Further, the “crossing of BBB in vitro” value in [1] is “crossed the barrier”.
With “FSSMPDPVDPTTVTKTFKTRKASAQASLASKDKTPKSKSK [Peptide P4]”, the “loss of peptide in culture medium containing 10% fetal calf serum” value in [2] (37° C., over a 24 hour period, Western blot) is “No loss”. Further, the “stability in serum containing medium” value in data set [2] is “stable”. The “stability in rat blood plasma” value in data set [3] was “stable”. The “toxicity in vitro against cultured neuroblastoma cells” value in the data set with neuroblastoma cells was “no toxicity”. For the same molecule, the “toxicity in vitro against primary cortical neurons” value in the data set on primary cortical neurons is reported as “no toxicity”. The “apparent toxicity in vivo” value in the data set on CD-1 mice is “none of the peptides, p4, p5, or p4-5 showed any apparent toxicity”.

B1: PK-4: Recombinant 170 amino acid polypeptide (21 kDa), sequence 1171-1314 and 1369-1380 of human pericentriolar material protein-1, PCM-1 (protein)
chain: SGKTEYMAFPKPFESSSSIGAEKPRNKKLPEEEVESSRTPWLYEQEGEVEKPFIKTGFSVSVEKSTSSNRKNQLDTNGRRRQFDEESLESFSSMPDPVDPTTVTKTFKTRKASAQASLASKDKTPKSKSKKRNSTQLKSRVKNITHARRILQQSNRNACNEAPETGSDFSMFEA
Consider B1, for which, in the data set with Aβ1-40, the “binding affinity for Aβ1-40” value is given as “high affinity (nM range)”. In addition, the “selective binding of Aβ1-42” value with Aβ1-42 (His-Tag antibody (FIG. 1A)) is reported as “selectively binds Aβ1-42”. Further, the “binding affinity for Aβ1-42” value with Aβ1-42 (PK-4-specific antibody (FIG. 1B)) was “high affinity (nM range)”. Besides, the “binding of reverse peptide Aβ40-1” value in the data set on Aβ40-1 is “does not bind”. In the data set on Aβ42-1, the “binding of reverse peptide Aβ42-1” value is “does not bind”. Further, the “binding of AB1-42” value with AB1-42 [5] was “High affinity-binding”. Besides, the PKC inhibitory activity result in the data set on rat brain PKC is “inhibits”.
